Data taken from article PMC10762035, “Molecular basis of human trace amine-associated receptor 1 activation” (Nature Communications, 2024).
Numbering of substitutions follows the chain as printed. Values joined by “and” are separate entries in the source; they are usually repeats but may differ in a detail not shown here. Equal values may be shown once. Read-outs that look alike come from different tables or passages of the source.

Assays:
hTA1 C88S = molecular target: T1, hTA1 C88S (Homo sapiens, UniProt Q96RJ0, C88S); experiment: GloSensor cAMP accumulation assay, C88S mutant; assay type: cell-based; conditions: for Normalized Luminescence Counts: C88S (N=2), log[Agonist]
T1 construct: expressed in transfected cells; host or cells: HEK293T
T1 sequence (Q96RJ0 1-339 C88S): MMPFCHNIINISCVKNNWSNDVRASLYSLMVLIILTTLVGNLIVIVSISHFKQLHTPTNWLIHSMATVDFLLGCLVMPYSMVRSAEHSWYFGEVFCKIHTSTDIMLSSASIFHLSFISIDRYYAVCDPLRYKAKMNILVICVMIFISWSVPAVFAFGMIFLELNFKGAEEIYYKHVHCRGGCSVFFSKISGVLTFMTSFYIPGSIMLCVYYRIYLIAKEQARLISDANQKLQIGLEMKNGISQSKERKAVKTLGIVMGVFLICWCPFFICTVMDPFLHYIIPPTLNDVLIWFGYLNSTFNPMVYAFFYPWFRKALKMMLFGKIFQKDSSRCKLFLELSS

hTA1 F195T = molecular target: T2, hTA1 F195T (Homo sapiens, UniProt Q96RJ0, F195T); experiment: GloSensor cAMP accumulation assay, F195T mutant; assay type: cell-based; conditions: F195T;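 further: cells transiently co-expressing HA-FLAG-tagged hTA1 and the GloSensor cAMP biosensor, luminescence read 30 min after agonist addition at room temperature, concentration-response fitted by nonlinear regression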
T2 construct: expressed in transfected cells; host or cells: HEK293T
T2 sequence (Q96RJ0 1-339 F195T): T1 sequence (Q96RJ0 1-339 C88S) with S88C, F195T

hTA1 R83H = molecular target: T3, hTA1 R83H (Homo sapiens, UniProt Q96RJ0, R83H); experiment: GloSensor cAMP accumulation assay, R83H mutant; assay type: cell-based; conditions: R83H;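 further: cells transiently co-expressing hTA1 and a cAMP GloSensor, luminescence read 30 min after agonist addition at room temperature, concentration–response fitted by non-linear regression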
T3 construct: expressed in transfected cells; host or cells: HEK293T
T3 sequence (Q96RJ0 1-339 R83H): T1 sequence (Q96RJ0 1-339 C88S) with R83H, S88C

hTA1 T194A = molecular target: T4, hTA1 T194A (Homo sapiens, UniProt Q96RJ0, T194A); experiment: GloSensor cAMP accumulation assay, T194A mutant
T4 sequence (Q96RJ0 1-339 T194A): T1 sequence (Q96RJ0 1-339 C88S) with S88C, T194A

[1] = Asenapine, per experiment, 3 replicates
[2] = Asenapine, per experiment, 3 replicates, read-out: pEC50 values Mean (converted)
[3] = n=2, read-out: Span ± SEM (Emax normalized to β-PEA)

CN1CC2c3ccccc3Oc3ccc(Cl)cc3C2C1 (stereo not drawn) [asenapine]
Normalized Luminescence Counts (hTA1 C88S; Asenapine, M -5): 78.2534 and 81.5764 and 79.8011 and 111.871 and 108.238 and 123.304
Normalized Luminescence Counts (hTA1 C88S; Asenapine, M -5.522): 94.436 and 87.9948 and 83.989 and 130.463 and 114.596 and 122.075
Normalized Luminescence Counts (hTA1 C88S; Asenapine, M -6): 79.8011 and 74.9077 and 70.7881 and 118.656 and 108.719 and 100.545
Normalized Luminescence Counts (hTA1 C88S; Asenapine, M -6.522): 57.5416 and 54.7649 and 49.5528 and 65.7127 and 60.6375 and 65.5525
Normalized Luminescence Counts (hTA1 C88S; Asenapine, M -7): 23.993 and 22.8778 and 24.6531 and 32.3228 and 28.1557 and 35.9556
Normalized Luminescence Counts (hTA1 C88S; Asenapine, M -7.522): 10.9969 and 9.859 and 9.563 and 7.801 and 8.763 and 9.724
Normalized Luminescence Counts (hTA1 C88S; Asenapine, M -8): 6.65 and 6.24 and 5.148 and 4.382 and 5.237 and 6.305
ΔpEC50 values (each mutant value - WT average), Mean (hTA1 C88S; C88S, Asenapine): -0.4947 and -0.3839
Emax values, Mean (hTA1 C88S; C88S, Asenapine, per experiment, 3 replicates): 126.964 and 89.044
EC50 (hTA1 C88S; C88S, Asenapine, per experiment, 3 replicates, read-out: pEC50 values Mean (converted)): 270 nM and 210 nM
EC50 (hTA1 C88S; C88S, n=2, read-out: EC50): 238 nM
Emax (hTA1 C88S; C88S, relative to β-PEA, read-out: Emax): 108%
increase in potency vs wild type (hTA1 F195T): 3 fold
ΔpEC50 values (each mutant value - WT average), Mean (hTA1 F195T; Asenapine): -0.004135 and 0.1049
Emax values, Mean (hTA1 F195T; [1]): 90.8432 and 72.9114
EC50 (hTA1 F195T; [2]): 87.4 nM and 68 nM
EC50 (hTA1 F195T; n=2, read-out: EC50): 77.1 nM
Emax (hTA1 F195T; [3]): 81.9 ± 8.97%
ΔpEC50 values (each mutant value - WT average), Mean (hTA1 R83H; Asenapine): -1.278 and -1.426
Emax values, Mean (hTA1 R83H; [1]): 22.9611 and 11.3307
EC50 (hTA1 R83H; [2]): 1640 nM and 2310 nM
EC50 (hTA1 R83H; n=2, read-out: EC50): 1950 nM
Emax (hTA1 R83H; [3]): 17.1 ± 5.82%
EC50 (hTA1 T194A; EC50, T194A): 540 nM
Emax values of Asenapine (hTA1 T194A; T194A, Mean of one experiment): 80.8072
ΔEmax values (each mutant value - WT average), T194A, Mean (hTA1 T194A; hTA1 T194A mutant vs WT average, Figure 6B, each line is one experiment (3 replicates)): 2.977 and -7.9001
EC50 (hTA1 T194A; pEC50 values of Asenapine, T194A, Mean of one experiment): 383 nM and 477 nM
EC50 (hTA1 T194A; pEC50 ± SEM, T194A): 457 nM
Emax (hTA1 T194A; read-out: Emax values of Asenapine, T194A, Mean of one experiment): 91.7%
Emax (hTA1 T194A; read-out: Span ± SEM (Emax normalized to β-PEA), T194A): 120%
